This is an account of results in PubChem BioAssay (NCI).

Experiment in all cases: inhibition of tumour cell growth, NCI panel, 48 h
In test [1] the test system is SNB-19 CNS.
The test system of test [2] is COLO 205 colon.
Test [3] deals with ACHN renal.
Test [4] concerns A549 NSCLC.
Test [5] concerns SK-MEL-5 melanoma.
Test [6] deals with OVCAR-5 ovarian.
Test [7] concerns UACC-62 melanoma.
Test [8] concerns HOP-92 NSCLC.
Test [9] deals with BT-549 breast.
Test [10] deals with HS 578T breast.

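Assay format: 96-well plates, 48-hour exposure. Abbreviation: GI50, concentration required for 50% inhibition of growth. Definition used: TGI = concentration required for complete inhibition of growth.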

With `CCOC(=O)/C(O)=C(/C(=O)OC)c1ccc(Cl)cc1`, the TGI in test [1], in test [2], in test [3], in test [4], in test [5] and in [6] was above 100 µM throughout. The same compound came in with a TGI in [7] above 100 µM.

As for `CN(C)C(=O)c1ccc([N+](=O)[O-])cc1`, the TGI in test [8], in [1], in test [2], in test [3], in test [4] and in test [5] was above 100 µM in each case. Also, the TGI in test [6] and in test [7] was above 100 µM throughout.

In the case of `COc1ccc(N(/C=C/C(=O)C(F)(F)F)CC(=O)c2ccc(F)cc2)cc1`, the GI50 was 30.4 µM in test [9]; 36.6 µM in test [1]; 26.9 µM in test [2]; 16.3 µM in [3]; 32 µM in [4]; 14.8 µM in [5]. Further, the values for the GI50 in test [6], in test [7] and in [10] were 34.1 µM, 12 µM and 27.8 µM, respectively. Further, the TGI in test [9] was above 100 µM; in test [1], above 100 µM; in test [2] it was 84.5 µM; in test [3], 41.2 µM; in [4], above 100 µM; in test [5], 32 µM. Besides, the TGI in test [6] worked out at 93.3 µM; in test [7], 38.3 µM; in [10], 89.1 µM.

Turning to `Cc1[nH]c2ccc(F)cc2c1-c1nc2c3cccnc3c3ncccc3c2[nH]1`, the GI50 is 0.295 µM in test [9]; 0.384 µM in [1]; 0.147 µM in test [2]; 0.327 µM in test [3]; 0.701 µM in test [4]; 0.19 µM in test [5]. Also, the GI50 in [6] is 0.397 µM; in test [7], 0.231 µM. For the same compound, the TGI in test [9] was above 100 µM; in test [1] it was above 100 µM; in [3], above 100 µM; in test [4], above 100 µM; in [5], 0.516 µM; in [6] it was above 100 µM. For the same compound, in test [7], the TGI came out at 0.678 µM.

In the case of `Cc1ccc(-c2nc3nc(-c4ccccc4)nc(N4CCNCC4)c3o2)cc1`, the GI50 in test [9] is 1.69 µM; in test [8] it was 1.48 µM; in test [1] it was 1.06 µM; in [2] it was 0.208 µM; in test [3] it was 0.495 µM; in [4], 0.788 µM. The results for the GI50 in test [5], in test [6] and in test [7] were 1.65 µM, 1.31 µM and 1.74 µM, respectively. Moreover, the TGI was 3.13 µM in test [9]; 3.13 µM in test [8]; 2.58 µM in test [1]; 0.423 µM in test [2]; 1.07 µM in test [3]; 2.5 µM in test [4]. The values for the TGI in test [5], in [6] and in test [7] were 3.04 µM, 2.74 µM and 3.27 µM, respectively.

Take `COc1cnc2c(c1)C(=O)c1c-2n(CCCNC2=NCCS2)c(=O)c2cc(Cl)ccc12`: the GI50 is 1.05 µM in [9]; 1.06 µM in [2]; 0.0487 µM in test [3]; 1.2 µM in test [4]; 0.812 µM in test [5]; 1.82 µM in test [6]. For the same compound, in test [7], the GI50 was 0.0953 µM. Also, the TGI in test [9] was found to be 2.56 µM; in test [2] it was 2.41 µM; in [3] it was 1.49 µM; in test [4], 2.51 µM; in [5], 2.12 µM; in test [6], 3.45 µM. The compound also returned a TGI in [7] of 1.94 µM.

Consider `CNC(=O)OCc1c2ccncc2c(C)c2c1[nH]c1ccc(OC)cc12`, for which the TGI is 0.618 µM in test [8]; 1.93 µM in [1]; 2.11 µM in [2]; 0.563 µM in test [3]; above 100 µM in [4]; 0.808 µM in [6]. In test [7], the TGI came to 0.454 µM.

Take `CCCN(CCC)C(=O)C(=O)c1c(N)[nH]n(-c2ccccc2)c1=O`: the TGI in test [8], in test [1], in test [2], in [3], in test [4] and in test [5] was above 100 µM throughout. Also, the TGI in [6] and in test [7] was above 100 µM each time.

On to `O=C(N/C(=C\c1ccc(/C=C(\NC(=O)c2ccccc2)c2nc3ccccc3[nH]2)cc1)c1nc2ccccc2[nH]1)c1ccccc1`, for which the TGI in test [8], in test [1], in test [2], in test [3], in test [4] and in test [5] was above 100 µM in each case. Besides, the TGI in test [6] and in test [7] was above 100 µM throughout.

As for `[O-]c1ccccc1/C=N/C(/N=C/c1ccccc1[O-])c1ccccc1O.[O-]c1ccccc1/C=N/C(/N=C/c1ccccc1[O-])c1ccccc1O.[Zr+4]`, the GI50 in test [1] was 13.1 µM; in test [3] it was 36.1 µM; in test [4], 40 µM; in [5], 22.4 µM; in test [6] it was 30 µM; in [10], 12.5 µM. The TGI is above 100 µM in test [1]; above 100 µM in test [3]; above 100 µM in test [4]; above 100 µM in test [5]; above 100 µM in [6]; 60 µM in [10].

Take `O=C(O)c1nc(-c2ccc(Cl)c(Cl)c2)nc2ccc(Cl)cc12`: the TGI in test [1], in test [2], in [3], in test [4], in [5] and in test [6] was above 100 µM throughout. The TGI in [7] is above 100 µM.

Regarding `CN(C)C(=O)c1cnc2oc3ccc(O)cc3c2c1-c1ccccc1`, the GI50 in test [9] is 6.2 µM; in [8], above 25 µM; in test [3], above 25 µM; in test [4], above 25 µM; in test [5], 6.75 µM; in test [6], 6.94 µM. The TGI in test [9], in test [8], in test [3], in test [4], in [5] and in [6] was above 25 µM in each case.
